Reference: patent US20020028224A1, “Cosmetic compositions containing substituted amide derivatives” (Unilever Home & Personal Care USA, Division of Conopco, Inc., priority 2000, published 2002)
Values joined by “and” are separate entries in the source; they are usually repeats but may differ in a detail not shown here. Identical values can stand only once. Like-named read-outs stand apart in the source and are kept apart here.

Tested on: human sebocytes
Assay: Sebum suppression: 14C-acetate label remaining in cultured human sebocytes
Format: cell-based
Conditions: for sebum suppressive activity in the presence of a retinoid / combined with retinol: summary in words, combined with retinol versus compound alone; for activity at 10 µM / activity at 50 µM / activity at 1 µM / activity at 28 µM / activity at 280 µM / activity at 0.1 µM: Homo sapiens; for activity at 10 µM / activity at 50 µM / activity at 1 µM / activity at 0.1 µM: read-out: % of Control
[1] = Experiment A, 1 μM test compound + 1 μM Retinol
[2] = Experiment A, 1 μM test compound + 10 μM Retinol
[3] = Experiment A, 1 μM test compound alone
[4] = Experiment A, 10 μM test compound + 1 μM Retinol
[5] = Experiment A, 10 μM test compound + 10 μM Retinol
[6] = Experiment A, 10 μM test compound alone
[7] = Experiment A, 28 μM Phenol Red (positive control)
[8] = Experiment B, 280 μM Phenol Red (positive control)
[9] = Experiment B, 1 μM test compound + 1 μM Retinol
[10] = Experiment B, 1 μM test compound + 10 μM Retinol
[11] = Experiment B, 1 μM test compound alone
[12] = Experiment B, 10 μM test compound + 1 μM Retinol
[13] = Experiment B, 10 μM test compound + 10 μM Retinol
[14] = Experiment B, 10 μM test compound alone
[15] = Experiment B, 0.1 μM test compound + 1 μM Retinol
[16] = Experiment B, 0.1 μM test compound + 10 μM Retinol
[17] = Experiment B, 0.1 μM test compound alone

Row | SMILES | sebum suppressive activity in the presence of a retinoid / combined with retinol | activity at 1 µM [1] [%] | activity at 1 µM [2] [%] | activity at 1 µM [3] [%] | activity at 10 µM [4] [%] | activity at 10 µM [5] [%] | activity at 10 µM [6] [%] | activity at 1 µM [9] [%] | activity at 1 µM [10] [%] | activity at 1 µM [11] [%] | activity at 10 µM [12] [%] | activity at 10 µM [13] [%] | activity at 10 µM [14] [%] | activity at 0.1 µM [15] [%] | activity at 0.1 µM [16] [%] | activity at 0.1 µM [17] [%] | further results
1 | CCOC(=O)c1ccc(NC(=O)Nc2ccc(O)cc2)cc1 [Compound F] | improved sebum suppressive activity | – | – | – | – | – | – | – | – | – | – | – | – | – | – | – | % of Control [1]: 67.3%; % of Control [2]: 65.8%; % of Control [3]: 84.7%; % of Control [4]: 66.2%; % of Control [5]: 53.7%; % of Control [6]: 82.7%
2 | Cc1cccc(N2CCN(C(=O)CC3C=CC(CC(=O)N4CCN(c5cccc(C)c5)C(C)C4)C3)CC2C)c1 (centres unmarked) [Compound G] | improved sebum suppressive activity | – | – | – | – | – | – | – | – | – | – | – | – | – | – | – | activity at 10 µM (96 Well Plate, 10 μM test compound + 1 μM Retinol): 70.3%; activity at 10 µM (96 Well Plate, 10 μM test compound alone): 102%; activity at 50 µM (96 Well Plate, 50 μM test compound + 1 μM Retinol): 3.3%; activity at 50 µM (96 Well Plate, 50 μM test compound alone): 25.5%
3 | CC1=C(/C=C/C(C)=C/C=C/C(C)=C/CO)C(C)(C)CCC1 [Retinol, retinol, reference compound] | – | – | – | – | – | – | – | – | – | – | – | – | – | – | – | – | activity at 10 µM (Experiment A, 10 μM Retinol alone): 105%; activity at 1 µM (Experiment B, 1 μM Retinol alone): 98.1%; activity at 10 µM (Experiment B, 10 μM Retinol alone): 106%; activity at 1 µM (Table 7, 1 μM Retinol alone): 98.1%; activity at 10 µM (Table 7, 10 μM Retinol alone): 106%
4 | O=S1(=O)OC(c2ccc(O)cc2)(c2ccc(O)cc2)c2ccccc21 [Phenol Red, phenol red, reference compound] | – | – | – | – | – | – | – | – | – | – | – | – | – | – | – | – | % of Control [7]: 95.3%; % of Control [8]: 46.5% and 52.2% and 54.9% and 56.8%; activity at 28 µM [7]: 75.5%; activity at 280 µM (Experiment A, 280 μM Phenol Red (positive control)): 15.9%; activity at 28 µM (Experiment B, 28 μM Phenol Red (positive control)): 86.4%; activity at 280 µM [8]: 52.5%; activity at 280 µM (Table 7, 280 μM Phenol Red (positive control)): 13.2%
5 | O=C(Nc1ccc(O)cc1)Nc1cccc(C(F)(F)F)c1 [Compound E] | improved sebum suppressive activity | 75.1 | 46.4 | 66.4 | 32 | 2.3 | 50 | 67.2 | 54.2 | 97.3 | 49.8 | 2.1 | 66.4 | – | – | – | –
6 | CC(CCC(=O)N1CCN(c2ccccc2)CC1)C1CCC2=C3CCC4CC(O)CCC4(C)C3CC(O)C21C (centres unmarked) [Compound B] | – | 80 | 66.2 | 88.1 | 8.7 | 7.2 | 25.6 | 69.1 | 69.9 | 68 | 0.3 | 0.3 | 0.3 | 81.7 | 84.8 | 87.9 | –
7 | Cc1cccc(O)c1NC(=O)OC1CC(C)CCC1C(C)C (centres unmarked) [Compound C] | – | – | 66.5 | 70.1 | – | 0.2 | 0.2 | 78.2 | 68.8 | 75.3 | 0.4 | 0.4 | 0.4 | 94 | 88.6 | 97.9 | –
8 | CC(CCC(=O)NC(=O)Nc1ccccc1Sc1ccccc1CO)C1CCC2=C3CCC4CC(O)CCC4(C)C3CC(O)C21C (centres unmarked) [Compound A] | – | 68.5 | 64.8 | 68.5 | 73.4 | 60.8 | 71 | 77.4 | 73.9 | 76.1 | 62.7 | 64.6 | 70.2 | 88.8 | 84.2 | 84.5 | –
